What follows are molecules tested against Aurora-B (Homo sapiens, UniProt Q96GD4) (assay: Aurora B (Aurora-1) Inhibition Assay, 33P incorporation). Settings: enzyme inhibition data (Ki), Table 11; read-out: AurB Ki.
Assay type: biochemical
Method: An assay buffer solution is prepared which consists of 25 mM HEPES (pH 7.5), 10 mM MgCl2, 0.1% BSA and 10% glycerol. A 22 nM Aurora-B solution, also containing 1.7 mM DTT and 1.5 mM Kemptide (LRRASLG), is prepared in assay buffer. To 22 μL of the Aurora-B solution, in a 96-well plate, is added 2 μl of a compound stock solution in DMSO and the mixture is allowed to equilibrate for 10 minutes at 25° C. The enzyme reaction is initiated by the addition of 16 μl stock [γ-^33P]-ATP solution (˜20 nCi/μL) prepared in assay buffer, to a final assay concentration of 800 μM. The reaction is stopped after 3 hours by the addition of 16 μL 500 mM phosphoric acid and the levels of ^33P incorporation into the peptide substrate is determined by the following method.
A phosphocellulose 96-well plate (Millipore, Cat no. MAPHNOB50) is pre-treated with 100 μL of a 100 mM phosphoric acid prior to the addition of the enzyme reaction mixture (40 μL). The solution is left to soak on to the phosphocellulose membrane for 30 minutes and the plate subsequently is washed four times with 200 μL of a 100 mM phosphoric acid. To each well of the dry plate is added 30 μL of Optiphase ‘SuperMix’ liquid scintillation cocktail (Perkin Elmer) prior to scintillation counting (1450 Microbeta Liquid Scintillation Counter, Wallac). Levels of non-enzyme catalysed background radioactivity are determined by adding 16 μL of the 500 mM phosphoric acid to control wells, containing all assay components (which acts to denature the enzyme), prior to the addition of the [γ-^33P]-ATP solution. Levels of enzyme catalysed ^33P incorporation are calculated by subtracting mean background counts from those measured at each inhibitor concentration. For each Ki determination 8 data points, typically covering the concentration range 0-10 μM compound, are obtained in duplicate (DMSO stocks are prepared from an initial compound stock of 10 mM with subsequent 1:2.5 serial dilutions). Ki values are calculated from initial rate data by non-linear regression using the Prism software package (Prism 3.0, Graphpad Software, San Diego, Calif.).

Sequence of Aurora-B (Q96GD4 whole entry): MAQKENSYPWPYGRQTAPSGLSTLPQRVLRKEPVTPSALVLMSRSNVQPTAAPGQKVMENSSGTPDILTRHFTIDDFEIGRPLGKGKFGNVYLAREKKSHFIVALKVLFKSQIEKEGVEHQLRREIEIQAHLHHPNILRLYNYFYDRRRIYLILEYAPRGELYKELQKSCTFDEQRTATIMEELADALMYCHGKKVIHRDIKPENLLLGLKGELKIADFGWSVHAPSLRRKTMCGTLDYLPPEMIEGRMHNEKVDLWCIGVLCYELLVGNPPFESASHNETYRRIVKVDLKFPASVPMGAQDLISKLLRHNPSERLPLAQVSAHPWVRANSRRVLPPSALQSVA

SMILES	Ki [nM]
Cc1ccc(-c2c(N)nn3cc(-c4ccncc4)cnc23)nc1 [Compound V-132]	500 to 5000
Cc1cccnc1-c1c(N)nn2cc(-c3ccncc3)cnc12 [Compound V-135]	500 to 5000
Cc1ccnc(-c2c(N)nn3cc(-c4ccncc4)cnc23)c1 [Compound V-133]	500 to 5000
Cc1cccc(-c2c(N)nn3cc(-c4ccncc4)cnc23)n1 [Compound V-178]	500 to 5000
Nc1nn2cc(-c3ccncc3)cnc2c1-c1ncccc1OCc1ccccc1 [Compound V-134]	500 to 5000
Nc1nn2cc(-c3ccncc3)cnc2c1-c1cc(N2CCCCC2)ncn1 [Compound V-179]	< 500
